Paper PMC8903829 (eLife, 2022)

Experiments:
[1] = target: T1, hNaV1.7 (Homo sapiens, UniProt Q15858); test: Qube 384 automated patch-clamp, inactivated-state inhibition; format: cell-based
T1 construct: expression vector containing the full-length cDNA coding for specific human and mouse sodium channel α-subunit; expressed in transfected cells
Description: (§1) All of the cell lines tested negative for mycoplasma.
(§2) Inorm(CPD)=(ICPD−Icontrol)/(ITTX−Icontrol).

[2] = target: T2, mNaV1.1 (Mus musculus, UniProt A2APX8); test: as above; format: cell-based
T2 construct: expression vector containing the full-length cDNA coding for specific human and mouse sodium channel α-subunit; expressed in transfected cells
Description: as §1, §2

[3] = target: T3, hNaV1.3 (Homo sapiens, UniProt Q9NY46); test: as above; format: cell-based
T3 construct: expression vector containing the full-length cDNA coding for specific human and mouse sodium channel α-subunit; expressed in transfected cells
Description: as §1, §2

[4] = target: T4, hNaV1.6 N984K (Homo sapiens, UniProt Q9UQD0, N984K); test: Automated patch-clamp, patient-identified variant in Expi293F cells; format: cell-based; parameters: h1.6-N984K 145756, Mean: scale not given here
T4 construct: expression vector containing the full-length cDNA coding for specific human and mouse sodium channel α-subunit; expressed in transfected cells; host or cells: Expi293F (transient, tetracycline-induced, pcDNA4/TO)
Procedure: (§3) For studies of mutant channels, cDNA plasmids in pcDNA4/TO Mammalian Expression Vector were transiently transfected into Expi293F cells stably expressing human FHF2b and human SCN1B subunit (polyclonal) background using ExpiFectamine 293 Transfection Kits (Gibco,Thermo Fisher Scientific CAT #: A14524). Induction was achieved using Tetracycline (Sigma Aldrich). Transfected cells were used in automated patch-clamp experiments 24 hours postinduction.
as §2

[5] = parameters: method as in Beatch et al., 2020; settings: humans; ref Beatch et al., 2020; cited from earlier work
[6] = target: hNaV1.4 (Homo sapiens, UniProt P35499); test: Qube 384 automated patch-clamp, inactivated-state inhibition
[7] = target: T5, hNaV1.1 (Homo sapiens, UniProt P35498); test: as above; format: cell-based
T5 construct: expression vector containing the full-length cDNA coding for specific human and mouse sodium channel α-subunit; expressed in transfected cells

[8] = target: T6, hNaV1.6 N1466K (Homo sapiens, UniProt Q9UQD0, N1466K); test: Automated patch-clamp, patient-identified variant in Expi293F cells; format: cell-based; parameters: h1.6 -N1466K 145756, Mean: scale not given here
T6 construct: expression vector containing the full-length cDNA coding for specific human and mouse sodium channel α-subunit; expressed in transfected cells; host or cells: Expi293F (transient, tetracycline-induced, pcDNA4/TO)
Procedure: as §3, §2

[9] = target: T7, hNaV1.6(N1768D) resurgent currents (Homo sapiens, UniProt Q9UQD0, N1768D); test: Resurgent current inhibition; format: cell-based
T7 construct: expression vector containing the full-length cDNA coding for specific human and mouse sodium channel α-subunit; expressed in transfected cells

[10] = target: T8, hNaV1.6 (Homo sapiens, UniProt Q9UQD0); test: Qube 384 automated patch-clamp, inactivated-state inhibition; format: cell-based; settings: for hNav1.6 current in (352)/(Vehicle), mean: Inactivated (-45mV)
T8 construct: expression vector containing the full-length cDNA coding for specific human and mouse sodium channel α-subunit; expressed in transfected cells
Target sequence in this assay (Q9UQD0 whole entry): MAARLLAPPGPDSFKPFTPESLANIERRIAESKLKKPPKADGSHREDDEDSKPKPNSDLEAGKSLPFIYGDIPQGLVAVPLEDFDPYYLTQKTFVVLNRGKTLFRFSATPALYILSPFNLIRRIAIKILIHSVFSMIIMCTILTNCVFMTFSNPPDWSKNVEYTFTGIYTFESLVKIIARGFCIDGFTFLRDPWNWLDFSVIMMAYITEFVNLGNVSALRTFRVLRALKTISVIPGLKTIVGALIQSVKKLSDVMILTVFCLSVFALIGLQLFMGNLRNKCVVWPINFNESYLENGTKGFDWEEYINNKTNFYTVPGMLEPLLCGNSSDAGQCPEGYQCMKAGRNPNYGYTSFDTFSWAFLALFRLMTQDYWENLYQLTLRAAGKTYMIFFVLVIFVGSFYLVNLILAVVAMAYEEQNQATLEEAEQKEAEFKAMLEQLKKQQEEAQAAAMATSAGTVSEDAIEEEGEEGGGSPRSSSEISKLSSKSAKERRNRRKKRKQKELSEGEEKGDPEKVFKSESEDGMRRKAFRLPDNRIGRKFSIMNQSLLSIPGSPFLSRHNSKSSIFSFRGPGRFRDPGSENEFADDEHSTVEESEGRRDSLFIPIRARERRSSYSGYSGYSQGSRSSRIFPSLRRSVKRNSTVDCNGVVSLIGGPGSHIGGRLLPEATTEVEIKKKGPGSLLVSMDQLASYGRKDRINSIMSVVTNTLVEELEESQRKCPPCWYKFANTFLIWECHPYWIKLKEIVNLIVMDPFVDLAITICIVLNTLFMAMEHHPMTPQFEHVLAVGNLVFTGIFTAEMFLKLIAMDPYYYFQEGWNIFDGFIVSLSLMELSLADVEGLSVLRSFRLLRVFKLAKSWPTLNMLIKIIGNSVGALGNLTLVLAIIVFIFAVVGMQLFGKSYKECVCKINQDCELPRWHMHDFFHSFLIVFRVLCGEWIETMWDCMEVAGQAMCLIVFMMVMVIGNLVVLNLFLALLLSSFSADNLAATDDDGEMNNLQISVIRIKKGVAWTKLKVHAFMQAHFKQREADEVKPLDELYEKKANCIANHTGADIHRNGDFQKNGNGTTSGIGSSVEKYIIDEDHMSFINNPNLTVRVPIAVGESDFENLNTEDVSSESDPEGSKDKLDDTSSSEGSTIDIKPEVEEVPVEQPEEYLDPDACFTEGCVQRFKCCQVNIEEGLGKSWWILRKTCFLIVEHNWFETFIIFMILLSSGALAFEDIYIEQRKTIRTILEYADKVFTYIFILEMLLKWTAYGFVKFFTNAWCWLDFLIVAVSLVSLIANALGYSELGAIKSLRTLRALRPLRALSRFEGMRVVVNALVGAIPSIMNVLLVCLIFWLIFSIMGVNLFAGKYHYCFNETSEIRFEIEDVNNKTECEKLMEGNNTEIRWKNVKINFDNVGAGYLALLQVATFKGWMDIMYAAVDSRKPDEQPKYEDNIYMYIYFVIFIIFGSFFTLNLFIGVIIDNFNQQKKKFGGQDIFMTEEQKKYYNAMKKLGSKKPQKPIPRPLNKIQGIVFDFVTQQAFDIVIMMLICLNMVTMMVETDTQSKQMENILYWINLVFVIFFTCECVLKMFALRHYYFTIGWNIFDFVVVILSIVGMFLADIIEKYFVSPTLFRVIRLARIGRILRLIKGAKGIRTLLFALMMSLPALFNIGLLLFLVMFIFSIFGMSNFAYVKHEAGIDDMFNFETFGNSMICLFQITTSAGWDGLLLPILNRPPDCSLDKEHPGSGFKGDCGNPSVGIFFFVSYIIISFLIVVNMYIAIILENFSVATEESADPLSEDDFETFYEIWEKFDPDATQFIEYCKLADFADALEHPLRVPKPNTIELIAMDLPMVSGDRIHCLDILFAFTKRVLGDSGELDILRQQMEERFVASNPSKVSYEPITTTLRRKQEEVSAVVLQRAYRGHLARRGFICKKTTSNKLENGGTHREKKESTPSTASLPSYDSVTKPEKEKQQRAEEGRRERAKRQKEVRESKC

[11] = target: T8, hNaV1.6; test: Automated patch-clamp, rested state 'Peak' current (Vh -120 mV); format: cell-based
Description: Holding the membrane potential at –120 mV induces most channels to reside in the resting state. […] Holding the membrane potential at –45 mV encourages channels to transition into inactivated states. Brief hyperpolarizations allow rapid recovery from inactivation for channels that are not bound to drug followed by a short 20ms test pulse to –20 mV to measure currents from unbound channels (see Materials and methods for details).
as §2
Target sequence in this assay (Q9UQD0 whole entry): as above
Target sequence in this assay (Q92913 1-192 isoform Q92913-2 partner): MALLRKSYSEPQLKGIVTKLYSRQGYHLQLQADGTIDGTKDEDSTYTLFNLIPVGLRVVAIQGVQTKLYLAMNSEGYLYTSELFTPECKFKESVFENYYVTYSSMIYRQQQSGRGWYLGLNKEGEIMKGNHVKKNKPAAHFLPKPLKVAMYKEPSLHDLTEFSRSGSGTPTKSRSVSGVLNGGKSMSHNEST

[12] = target: T9, mNaV1.6 (Mus musculus, UniProt Q9WTU3); test: Qube 384 automated patch-clamp, inactivated-state inhibition; format: cell-based
T9 construct: expression vector containing the full-length cDNA coding for specific human and mouse sodium channel α-subunit; expressed in transfected cells
T9 sequence (Q9WTU3 whole entry): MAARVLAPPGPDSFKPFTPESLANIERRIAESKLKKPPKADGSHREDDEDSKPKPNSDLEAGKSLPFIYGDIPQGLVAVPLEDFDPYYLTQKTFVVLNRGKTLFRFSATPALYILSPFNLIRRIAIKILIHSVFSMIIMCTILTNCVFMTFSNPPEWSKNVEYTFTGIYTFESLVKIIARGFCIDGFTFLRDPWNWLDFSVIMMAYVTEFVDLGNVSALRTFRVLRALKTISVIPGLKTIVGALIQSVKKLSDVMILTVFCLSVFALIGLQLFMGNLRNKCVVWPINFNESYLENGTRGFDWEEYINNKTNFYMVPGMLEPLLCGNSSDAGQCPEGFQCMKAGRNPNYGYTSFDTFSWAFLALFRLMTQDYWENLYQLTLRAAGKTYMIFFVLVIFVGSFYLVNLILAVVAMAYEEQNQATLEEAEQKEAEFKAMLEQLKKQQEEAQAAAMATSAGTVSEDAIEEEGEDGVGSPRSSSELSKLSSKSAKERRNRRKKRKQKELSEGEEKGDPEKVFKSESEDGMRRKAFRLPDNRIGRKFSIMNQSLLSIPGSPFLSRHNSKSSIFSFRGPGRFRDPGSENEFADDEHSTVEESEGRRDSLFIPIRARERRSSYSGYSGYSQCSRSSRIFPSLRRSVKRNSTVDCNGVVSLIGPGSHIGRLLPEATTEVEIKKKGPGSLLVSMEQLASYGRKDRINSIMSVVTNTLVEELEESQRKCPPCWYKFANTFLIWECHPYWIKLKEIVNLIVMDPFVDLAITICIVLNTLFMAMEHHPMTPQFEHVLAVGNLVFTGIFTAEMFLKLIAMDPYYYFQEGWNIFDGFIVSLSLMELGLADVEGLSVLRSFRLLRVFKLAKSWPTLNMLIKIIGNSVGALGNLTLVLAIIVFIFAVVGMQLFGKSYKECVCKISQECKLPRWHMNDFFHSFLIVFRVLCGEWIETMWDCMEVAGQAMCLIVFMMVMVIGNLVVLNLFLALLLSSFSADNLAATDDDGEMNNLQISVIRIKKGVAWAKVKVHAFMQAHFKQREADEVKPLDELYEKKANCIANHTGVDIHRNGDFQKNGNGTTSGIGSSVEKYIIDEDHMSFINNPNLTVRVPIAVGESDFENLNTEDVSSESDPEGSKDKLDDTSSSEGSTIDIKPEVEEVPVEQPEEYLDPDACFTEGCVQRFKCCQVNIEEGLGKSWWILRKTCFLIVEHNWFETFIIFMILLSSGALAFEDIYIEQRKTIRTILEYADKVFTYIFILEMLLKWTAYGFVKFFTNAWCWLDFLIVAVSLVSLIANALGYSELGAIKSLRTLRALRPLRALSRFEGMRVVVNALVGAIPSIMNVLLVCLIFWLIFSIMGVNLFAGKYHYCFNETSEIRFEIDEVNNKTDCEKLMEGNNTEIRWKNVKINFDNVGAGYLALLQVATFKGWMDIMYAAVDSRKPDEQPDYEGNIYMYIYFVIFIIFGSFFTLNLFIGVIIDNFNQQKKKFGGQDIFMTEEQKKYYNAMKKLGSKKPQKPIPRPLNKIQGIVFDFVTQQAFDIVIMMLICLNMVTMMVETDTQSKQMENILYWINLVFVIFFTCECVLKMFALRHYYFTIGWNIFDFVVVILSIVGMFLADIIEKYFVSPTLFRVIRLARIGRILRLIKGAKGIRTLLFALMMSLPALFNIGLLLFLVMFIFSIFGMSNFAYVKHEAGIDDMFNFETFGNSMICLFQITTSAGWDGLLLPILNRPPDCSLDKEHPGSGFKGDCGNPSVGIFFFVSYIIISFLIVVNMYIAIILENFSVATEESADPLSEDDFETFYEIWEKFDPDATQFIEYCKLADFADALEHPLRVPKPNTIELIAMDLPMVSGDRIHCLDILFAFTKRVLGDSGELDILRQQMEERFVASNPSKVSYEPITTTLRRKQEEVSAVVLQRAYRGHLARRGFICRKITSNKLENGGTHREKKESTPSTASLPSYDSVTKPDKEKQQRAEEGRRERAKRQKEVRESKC
T9 sequence (Q92913 1-192 isoform Q92913-2 partner): as the sequence (Q92913 1-192 isoform Q92913-2 partner) above

T6 sequence (Q9UQD0 whole entry N1466K): as the sequence (Q9UQD0 whole entry) above, with N1466K counted along it
T4 sequence (Q9UQD0 whole entry N984K): as the sequence (Q9UQD0 whole entry) above, with N984K counted along it
T7 sequence (Q9UQD0 whole entry N1768D): as the sequence (Q9UQD0 whole entry) above, with N1768D counted along it
T7 sequence (Q92913 1-192 isoform Q92913-2 partner): as the sequence (Q92913 1-192 isoform Q92913-2 partner) above

SMILES: Cc1cc(S(=O)(=O)Nc2cscn2)c(F)cc1N(C)[C@H]1CCN(Cc2ccccc2)C1 [NBI-921352]
- hNav1.7 current (352)/(Vehicle), mean ([1]; -4.52288 Log M): 0.74
- hNav1.7 current (352)/(Vehicle), mean ([1]; -5 Log M): 0.41
- hNav1.7 current (352)/(Vehicle), mean ([1]; -5.47716 Log M): 0.2
- hNav1.7 current (352)/(Vehicle), mean ([1]; -5.95429 Log M): 0.08
- hNav1.7 current (352)/(Vehicle), mean ([1]; -6.91009 Log M): 0.02
- hNav1.7 current (352)/(Vehicle), mean ([1]; -7.38722 Log M): 0.01
- hNav1.7 current (352)/(Vehicle), mean ([1]; -7.85387 Log M): 0.02
- hNav1.7 current (352)/(Vehicle), mean ([1]; -8.30103 Log M): -0.02
- IC50 ([1]; Vh -60 mV, HEK-293): 14000 nM
- mNaV1.1 current (352)/(Vehicle) ([2]; -4.22185 Log M): 0.61
- mNaV1.1 current (352)/(Vehicle) ([2]; -4.69897 Log M): 0.28
- mNaV1.1 current (352)/(Vehicle) ([2]; -5.17607 Log M): 0.19
- mNaV1.1 current (352)/(Vehicle) ([2]; -5.65326 Log M): 0.12
- mNaV1.1 current (352)/(Vehicle) ([2]; -6.13018 Log M): 0.05
- mNaV1.1 current (352)/(Vehicle) ([2]; -6.6073 Log M): -0.03
- mNaV1.1 current (352)/(Vehicle) ([2]; -7.08619 Log M): -0.01
- mNaV1.1 current (352)/(Vehicle) ([2]; -7.56864 Log M): 0
- IC50 ([2]; Vh -45 mV): 41000 nM
- inhibition at 30 µM ([3]; 30 µM, NaV1.3, read-out: inhibition at the highest concentration tested): < 50%
- hNaV1.3 current (352)/(Vehicle), mean ([3]; -4.52288 Log M): 0.17
- hNaV1.3 current (352)/(Vehicle), mean ([3]; -5 Log M): 0.03
- hNaV1.3 current (352)/(Vehicle), mean ([3]; -5.47716 Log M): 0.01
- hNaV1.3 current (352)/(Vehicle), mean ([3]; -5.95429 Log M): -0.01
- hNaV1.3 current (352)/(Vehicle), mean ([3]; -6.91009 Log M): 0.01
- hNaV1.3 current (352)/(Vehicle), mean ([3]; -7.38722 Log M): 0.02
- hNaV1.3 current (352)/(Vehicle), mean ([3]; -7.85387 Log M): -0.01
- IC50 ([3]; Vh -45 mV, HEK-293): > 30000 nM
- IC50 [4]: 32 nM
- h1.6-N984K 145756, Mean ([4]; -5 LogM): 0.94
- h1.6-N984K 145756, Mean ([4]; -5.47716 LogM): 0.92
- h1.6-N984K 145756, Mean ([4]; -5.95429 LogM): 0.89
- h1.6-N984K 145756, Mean ([4]; -6.4318 LogM): 0.81
- h1.6-N984K 145756, Mean ([4]; -6.91009 LogM): 0.66
- h1.6-N984K 145756, Mean ([4]; -7.38722 LogM): 0.56
- h1.6-N984K 145756, Mean ([4]; -7.85387 LogM): 0.33
- h1.6-N984K 145756, Mean ([4]; -8.33 LogM): 0.09
- half-life of elimination [5]: approximately 8.5 hr
- IC50 [6]: > 30000 nM
- inhibition at 30 µM ([6]; read-out: inhibition at the highest concentration tested): < 50%
- hNav1.1 current in (352)/(Vehicle), mean ([7]; -4 Log M): 0.68
- hNav1.1 current in (352)/(Vehicle), mean ([7]; -4.30103 Log M): 0.57
- hNav1.1 current in (352)/(Vehicle), mean ([7]; -4.47713 Log M): 0.44
- hNav1.1 current in (352)/(Vehicle), mean ([7]; -4.77814 Log M): 0.3
- hNav1.1 current in (352)/(Vehicle), mean ([7]; -4.95425 Log M): 0.25
- hNav1.1 current in (352)/(Vehicle), mean ([7]; -5.25524 Log M): 0.16
- hNav1.1 current in (352)/(Vehicle), mean ([7]; -5.43133 Log M): 0.12
- hNav1.1 current in (352)/(Vehicle), mean ([7]; -5.73236 Log M): 0.07
- hNav1.1 current in (352)/(Vehicle), mean ([7]; -5.90833 Log M): 0.07
- hNav1.1 current in (352)/(Vehicle), mean ([7]; -6.20971 Log M): 0.04
- hNav1.1 current in (352)/(Vehicle), mean ([7]; -6.3851 Log M): 0.03
- hNav1.1 current in (352)/(Vehicle), mean ([7]; -6.68613 Log M): 0.05
- hNav1.1 current in (352)/(Vehicle), mean ([7]; -6.86328 Log M): 0.01
- hNav1.1 current in (352)/(Vehicle), mean ([7]; -7.16115 Log M): 0.04
- hNav1.1 current in (352)/(Vehicle), mean ([7]; -7.33724 Log M): 0
- hNav1.1 current in (352)/(Vehicle), mean ([7]; -7.63827 Log M): 0.01
- IC50 [8]: 39 nM
- h1.6 -N1466K 145756, Mean ([8]; -5 LogM): 0.92
- h1.6 -N1466K 145756, Mean ([8]; -5.47716 LogM): 0.94
- h1.6 -N1466K 145756, Mean ([8]; -5.95429 LogM): 0.81
- h1.6 -N1466K 145756, Mean ([8]; -6.4318 LogM): 0.73
- h1.6 -N1466K 145756, Mean ([8]; -6.91009 LogM): 0.69
- h1.6 -N1466K 145756, Mean ([8]; -7.38722 LogM): 0.47
- h1.6 -N1466K 145756, Mean ([8]; -7.85387 LogM): 0.32
- h1.6 -N1466K 145756, Mean ([8]; -8.33 LogM): 0.15
- N1768D current in (352)/(Vehicle), Resurgent, mean ([9]; -5 Log M): 0.94
- N1768D current in (352)/(Vehicle), Resurgent, mean ([9]; -5.47716 Log M): 0.88
- N1768D current in (352)/(Vehicle), Resurgent, mean ([9]; -5.95429 Log M): 0.86
- N1768D current in (352)/(Vehicle), Resurgent, mean ([9]; -6.91009 Log M): 0.8
- N1768D current in (352)/(Vehicle), Resurgent, mean ([9]; -7.38722 Log M): 0.57
- N1768D current in (352)/(Vehicle), Resurgent, mean ([9]; -7.85387 Log M): 0.18
- IC50 ([9]; NaVβ4 peptide 200 μM intracellular, read-out: apparent IC50 resurgent currents from N1768D channels): 37 nM
- IC50 [10]: 51 nM
- hNav1.6 current in (352)/(Vehicle), mean ([10]; -5 Log M): 0.96
- hNav1.6 current in (352)/(Vehicle), mean ([10]; -5.47716 Log M): 0.91
- hNav1.6 current in (352)/(Vehicle), mean ([10]; -5.95429 Log M): 0.87
- hNav1.6 current in (352)/(Vehicle), mean ([10]; -6.47756 Log M): 0.83
- hNav1.6 current in (352)/(Vehicle), mean ([10]; -6.91009 Log M): 0.68
- hNav1.6 current in (352)/(Vehicle), mean ([10]; -6.95468 Log M): 0.66
- hNav1.6 current in (352)/(Vehicle), mean ([10]; -7.38722 Log M): 0.57
- hNav1.6 current in (352)/(Vehicle), mean ([10]; -7.4318 Log M): 0.52
- hNav1.6 current in (352)/(Vehicle), mean ([10]; -7.85387 Log M): 0.25
- hNav1.6 current in (352)/(Vehicle), mean ([10]; -8.30103 Log M): 0.16
- hNav1.6 current in (352)/(Vehicle), mean ([10]; -8.39794 Log M): 0.12
- hNav1.6 current in (352)/(Vehicle), mean ([10]; -9.34679 Log M): 0.01
- IC50 [11]: 36000 nM
- hNav1.6 current in (352)/(Vehicle), Rested (-120mV), mean ([11]; -4 Log M): 0.8706
- hNav1.6 current in (352)/(Vehicle), Rested (-120mV), mean ([11]; -4.47713 Log M): 0.4353
- hNav1.6 current in (352)/(Vehicle), Rested (-120mV), mean ([11]; -4.95425 Log M): 0.1765
- hNav1.6 current in (352)/(Vehicle), Rested (-120mV), mean ([11]; -5.43133 Log M): 0.09412
- hNav1.6 current in (352)/(Vehicle), Rested (-120mV), mean ([11]; -5.90833 Log M): -0.01176
- hNav1.6 current in (352)/(Vehicle), Rested (-120mV), mean ([11]; -6.3851 Log M): -0.02353
- hNav1.6 current in (352)/(Vehicle), Rested (-120mV), mean ([11]; -6.86328 Log M): 0.1176
- hNav1.6 current in (352)/(Vehicle), Rested (-120mV), mean ([11]; -7.33724 Log M): 0.05882
- mNaV1.6 current (352)/(Vehicle) ([12]; -5 Log M): 0.92
- mNaV1.6 current (352)/(Vehicle) ([12]; -5.47716 Log M): 0.9
- mNaV1.6 current (352)/(Vehicle) ([12]; -5.95429 Log M): 0.84
- mNaV1.6 current (352)/(Vehicle) ([12]; -6.91009 Log M): 0.63
- mNaV1.6 current (352)/(Vehicle) ([12]; -7.38722 Log M): 0.48
- mNaV1.6 current (352)/(Vehicle) ([12]; -7.85387 Log M): 0.27
- mNaV1.6 current (352)/(Vehicle) ([12]; -8.30103 Log M): 0.12
- IC50 ([12]; Vh -45 mV): 58 nM
